According to patent US10274456B2, “Method and system for sensing” (Ramot at Tel-Aviv University Ltd., priority 2013, dated 2019):

Columns and labels:
Assay type in all cases: cell-based, Human
Jurkat cells [1] = test: Cell proliferation rate / viability of drug-treated Jurkat cells (trypan blue count); conditions: for cell viability: 24-hour viability observation
Procedure: During experiments, cells were re-suspended in phenol red-free medium (11835-063, GIBCO) in the presence or absence of a drug, either methotrexate hydrate (MTX; […], SIGMA) or 2-deoxy-D-glucose (2DG; […], SIGMA), at a density of 1×10^6 cells/ml. Cell viability was estimated by using a hemocytometer to count trypan blue-stained cells. Relative cell count, presented in FIGS. 6B and 6E-6F, is a ratio of the cell count at t=24 hours to the initial cell count.

Jurkat cells [2] = test: pH sensing of drug-treated Jurkat cells (reductant-added medium); conditions: compared with the control
Excerpt: A conversion of the modified FET into a pH sensor was achieved by using a reductant-added solution. After supplementing a culture medium with 0.1% v/v DEHA to reduce the modified FET surface, surface proton density varied by protonation or by deprotonation dominantly changes the measured current.
For pH sensing, 0.1% v/v DEHA was supplemented in the sensing medium to reduce the 9,10-anthraquinone monolayer on the FET surface to obtain 9,10-dihydroxyanthracene (see also FIG. 1d) and H2O2 simultaneously. Therefore, no significant amount of H2O2 in a DEHA-supplemented medium altered a measured signal. As a result, surface proton density, varied by protonation or by deprotonation, dominantly changes an acquired signal.

Jurkat cells [3] = test: Extracellular lactate level of drug-treated Jurkat cells (lactate oxidase, nanowire biosensor); conditions: after 24 hours
Procedure: For lactate sensing, 0.1 unit/ml of lactate oxidase (LOX; L0638, SIGMA) was added in phenol red-free medium to convert lactate to pyruvate and H2O2 before lactate reaches the FET array (as depicted in FIG. 1D).
During experiments, cells were re-suspended in phenol red-free medium (11835-063, GIBCO) in the presence or absence of a drug, either methotrexate hydrate (MTX; M8407, SIGMA) or 2-deoxy-D-glucose (2DG; D6134, SIGMA), at a density of 1×10^6 cells/ml.
The correlation between extracellular lactate level of 2DG-treated Jurkat cells and a resultant cell proliferation rate after 24 hours was investigated.

Jurkat cells [4] = test: Extracellular ROS level of drug-treated Jurkat cells measured with the nanowire biosensor; conditions: t=6 hours, normalized by the number of live cells
Procedure: For measurements of cellular metabolites/activity, cells were cultured in the chip, namely, in the culture compartment thereof (see, for example, FIG. 1A), while placing the chip in an incubator during measurements. A sample was introduced to the sensing compartment at 20 μl min^-1 by using a syringe pump. Human T lymphocytes, Jurkat (TIB-152, ATCC), were cultured and incubated at 37° C. under a humidified 5% CO2 atmosphere. The culture medium used was RPMI 1640 medium (52400, GIBCO) with 10% fetal bovine serum (FBS; 04-001-1A, Biological Industry) and 1% penicillin/streptomycin (15140, GIBCO). During experiments, cells were re-suspended in phenol red-free medium (11835-063, GIBCO) in the presence or absence of a drug, either methotrexate hydrate (MTX; […], SIGMA) or 2-deoxy-D-glucose (2DG; […], SIGMA), at a density of 1×10^6 cells/ml. Cellular samples were dispensed into the wells of the sensing chip (see FIGS. 1A and 1B) in an incubator. 24-hour monitoring of metabolic activity of drug-treated Jurkat cells by measuring extracellular ROS levels using the nanowire biosensor, was performed and the obtained data is presented in FIGS. 6A-G. Measured ROS levels were normalized by the number of live cells.

| Compound | cell viability (Jurkat cells [1]) | cell proliferation rate (Jurkat cells [1]; after 24 hours, relative cell count) | pH of cultured cells (Jurkat cells [2]) | cellular lactate secretion (Jurkat cells [3]) | ROS level (Jurkat cells [4]) |
| --- | --- | --- | --- | --- | --- |
| O=CC[C@@H](O)[C@H](O)[C@H](O)CO [2DG, 2-deoxy-D-glucose] | anti-proliferative activity | reduced proliferation rate | more basic than the control | decreased | noticeable decrease |
| CN(Cc1cnc2nc(N)nc(N)c2n1)c1ccc(C(=O)N[C@@H](CCC(=O)O)C(=O)O)cc1 [MTX, methotrexate hydrate] | anti-proliferative activity |  |  |  | noticeable decrease |
